Reference: patent US20230181678A1, “NOVEL ANTIBACTERIAL PEPTIDE OR PEPTIDE ANALOG AND USE THEREOF” (CAMP THERAPEUTICS INC., priority 2020, published 2023)
Square brackets hold non-standard residues; d marks the D form. * marks the point of attachment. Octanoyl = CCCCCCCC(=O)*; Dab = NCC[C@H](N)C(=O)O

How the values were obtained:
[1] = system: inner membrane of E. coli ATCC 25922; assay: Enzyme assay, inner membrane leakage (β-galactosidase release, ONPG); type: cell-based; conditions: 1.5 mM ONPG
Experimental: (§1) It was observed, through an enzyme assay, whether the sensitizing peptide destroyed the outer and inner membranes of Gram-negative bacteria. In the presence of the sensitizing peptide, it was observed whether in a case where 1.5 mM ONPG was used together therewith, β-galactosidase was released from E. coli ATCC 25922 for the inner membrane, and whether in a case where 200 μM CENTA was used together therewith, β-lactamase was released from E. coli NDM-1 for the outer membrane.
To determine leakage of the inner membrane, release of the cytoplasmic enzyme β-galactosidase was evaluated. The bacteria were diluted to OD600=1 and 1.5 mM ONPG (O-nitrophenyl-β-D-galactopyranoside) was added. Absorbance of a product of enzyme reaction was measured at 420 nm. The other procedures were carried out in the same manner as in the experiment for outer membrane destruction.

[2] = system: outer membrane of E. coli NDM-1; assay: Enzyme assay, outer membrane leakage (β-lactamase release, CENTA); type: cell-based; conditions: peptide 0.63 or 1.30 uM, 37° C., 1 h; 200 μM CENTA
Experimental: as §1
Specifically, to determine leakage of the outer membrane, activity of the β-lactamase released from the outer membrane was evaluated. New Delhi metallo-β-lactamase-1 (NDm-1)-producing E. coli cells were washed three times with DPBS and suspended in the same buffer. The cells were diluted to an OD600 of 0.2 and treated with the peptide at a concentration of 0.63 or 1.30 uM at 37° C. for 1 h. After centrifugation, the supernatant was incubated with 200 μM CENTATM β-lactamase substrate at 37° C. for 1 hour. An optical density was obtained by measuring absorbance of a product of enzyme reaction at 405 nm using a microplate reader (Molecular Devices Co., Menlo Park, Calif.).
The results are illustrated in FIGS. 12A and 12B. The y-axis is absorbance measured at 405 nm, and higher absorbance is observed as a higher amount of β-lactamase is released due to destruction of the membrane.

[3] = system: human red blood cells (hRBC); assay: Hemolysis assay; type: cell-based; conditions: hRBCs, 37° C., 4 hours
Experimental: To identify toxicity of the peptides, human red blood cell (hRBC) hemolytic activity assay (hemolysis assay) was performed.
Specifically, percent hemolysis of human red blood cells (hRBC) was determined by comparing the cells incubated in 100% deionized water (DW) as a positive control and peptide-free PBS as a negative control. hRBCs were washed 3 times with PBS using centrifugation at 500 g for 5 min, and 5% (v/v) hematocrit was suspended in PBS buffer (Hyclone). The peptide was diluted using 2-fold serial dilution with PBS, and hRBCs were added at 2.5×10^8 cells to each well. The sample was incubated at 37° C. for 4 hours. After centrifugation at 1400 rpm for 5 minutes, 180 μL of the supernatant was transferred to a transparent flat-bottom 96-well plate. An amount of hemoglobin released by the peptide was determined by measuring absorbance at 405 nm using an EPOCH2 microplate reader (BioTek, Winooski, USA).
Hemolytic activity (%)=(absorbance of sample−absorbance of PBS)/(absorbance of 100% DW−A405 of PBS)×100

E. coli ATCC 25922 = assay: MIC assay, sensitizing effect of peptide on antibacterial agents; type: cell-based; conditions: E.c. ATCC 25922, peptide 4 ug/ml
Experimental: (§2) All MIC assay experiments were performed using the Clinical and Laboratory Standards Institute (CLSI) guidelines (Clinical & Laboratory Standards Institute: CLSI Guidelines, 2017). Bacterial cells cultured overnight were diluted to 0.05 McFarland standard using McFarland (KIT […] PLUS INSTRUMENT, Biomerieux) in Muller Hinton II Broth (cation-adjusted) (Difco). The cells were inoculated at 1.5×10^5 CFU per 200 μL solution of each well in a 96-well plate. The peptide and the antibiotic were prepared using 2-fold serially diluted concentrations. […] Incubation was performed at 37° C. for 18 hours, and then absorbance was measured at 600 nm using an EPOCH2 microplate reader (BioTek, Winooski, USA) to calculate a MIC value. The MIC value was defined as a concentration of the antibiotic or peptide at which bacterial growth was inhibited to a level of lower than 10% growth of the positive control. Fold reduction was calculated using the following expression.
Fold reduction=MIC of antibiotic alone/MIC of antibiotic in presence of sensitizing peptide
Using the same MIC assay method as in Example 1, sensitizing effects of the peptide L9P (CMP1107, 1 ug/ml), which is known as a conventional sensitive AMP, and CMP1401 (1 ug/ml) were compared on existing antibacterial agents against E. coli ATCC 25922 (FIG. 5A).
In addition, MIC screening was used to compare sensitizing effects of the competitive drug SPR741 and the peptide CMP1401 or CMP1501 on the existing antibacterial agents against E. coli ATCC 25922 (FIGS. 5B and 5C). SPR741, which is a previously known polymyxin B (PMB) analog, is a sensitive AMP, and is a drug that has been identified through preclinical experiments to be effective against Gram-negative bacteria in a case of being used together with existing Gram-positive antibiotics.
(§3) ATCC 25922, A.b. ATCC 17978, K.p. ATCC 700603, and P.a. ATCC 27853, or CRE (E.c. NDM-1, K.p. NDM-1, or K.p. KPC) (FIGS. 9 and 10).

Kp NDM-1 = assay: MIC assay, sensitizing effect of peptide on rifampicin (CRE); type: cell-based, Klebsiella pneumoniae; conditions: FIG. 9F; Kp NDM-1 (CRE); peptide 4 ug/ml
Experimental: as §2, §3

Ec NDM-1 = assay: as above; type: cell-based, E. coli; conditions: FIG. 9E; Ec NDM-1 (CRE); peptide 4 ug/ml
Experimental: as §2, §3

K.p. KPC = assay: MIC assay, sensitizing effect of peptide on rifampicin or colistin (CRE); type: cell-based, Klebsiella pneumoniae; conditions: peptide 4 ug/ml
Experimental: as §2, §3

[4] = system: Acinetobacter baumannii ATCC 17978; assay: MIC assay, sensitizing effect of peptide on antibiotics; type: cell-based; conditions: FIG. 9B; A.b. ATCC 17978; peptide 4 ug/ml
P.a. ATCC 27853 = assay: MIC assay, sensitizing effect of peptide on rifampicin or colistin; type: cell-based, Pseudomonas aeruginosa; conditions: peptide 4 ug/ml
Experimental: as §2, §3

[5] = system: E. cloacae clinical strains; assay: MIC50 and MIC90 in clinical strains with CMP1709 (colistin); type: cell-based; conditions: CMP1709 4 ug/ml with colistin vs colistin alone; results not shown
Source text: (§4) The selected clinical strains E. coli, K. pneumoniae, E. cloacae, C. freundii, and S. marcescens were all carbapenem-resistant strains, and the selected clinical strain P. aeruginosa included 43 strains of imipenem- and meropenem-resistant strains, and 60 strains of imipenem- and meropenem-sensitive strains.
(§5) The results are illustrated in FIG. 11 (results not shown for colistin). The “Fold reduction of MIC90” in FIG. 11 indicates a MIC90 value observed in a case where the antibacterial agent was used in combination with CMP1709 as compared with a case where the antibacterial agent was used alone.

E. coli clinical strains = assay: as above; type: cell-based; conditions: CMP1709 4 ug/ml with colistin vs colistin alone; results not shown
Source text: as §4, §5

K.p. ATCC 700603 = assay: MIC assay, sensitizing effect of peptide on rifampicin; type: cell-based, Klebsiella pneumoniae; conditions: FIG. 9C, peptide 4 ug/ml
Experimental: as §2, §3

[6] = system: E.c. ATCC 25922, A.b. ATCC 17978, K.p. ATCC 700603, P.a. ATCC 27853, or CRE (E.c. NDM-1, K.p. NDM-1, or K.p. KPC); assay: MIC assay, comparison with L9P on rifampicin or colistin; type: cell-based; conditions: FIGS. 9 and 10
Experimental: as §2, §3

E. coli NDM-1 = assay: Neutropenic mouse thigh infection model; type: in vivo

Compound | destruction of inner membrane (β-galactosidase release) [1] | destruction of outer membrane (β-lactamase release) [2] | hemolytic activity [3] | Decreased MIC value of rifampicin at peptide concentration of 4 ug/ml (E. coli ATCC 25922; FIG. 9A) | Decreased MIC value of colisitin at peptide concentration of 4 ug/ml (E. coli ATCC 25922; FIG. 10A) | Decreased MIC value of rifampicin at peptide concentration of 4 ug/ml (Kp NDM-1) | Decreased MIC value of rifampicin at peptide concentration of 4 ug/ml (Ec NDM-1) | Decreased MIC value of rifampicin at peptide concentration of 4 ug/ml (K.p. KPC; FIG. 9G) | Decreased MIC value of colisitin at peptide concentration of 4 ug/ml (K.p. KPC; FIG. 10C) | Decreased MIC value of rifampicin at peptide concentration of 4 ug/ml [4] | Decreased MIC value of rifampicin at peptide concentration of 4 ug/ml (P.a. ATCC 27853; FIG. 9D) | Decreased MIC value of colisitin at peptide concentration of 4 ug/ml (P.a. ATCC 27853; FIG. 10B) | sensitizing effect with colistin [5] | sensitizing effect with colistin (E. coli clinical strains) | Decreased MIC value of rifampicin at peptide concentration of 4 ug/ml (K.p. ATCC 700603) | sensitizing effect on rifampicin or colistin compared with L9P [6] | decrease in number of colonies compared with rifampicin alone (E. coli NDM-1; CMP1709 75 mg/kg in the presence of 20 mg/kg of rifampicin) | number of colonies, peptide administered alone (E. coli NDM-1; CMP1709 alone) | therapeutic efficacy of combination therapy with rifampicin (E. coli NDM-1; rifampicin and CMP1709)
CC[C@H](C)[C@H](NC(=O)CN)C(=O)NCC(=O)N[C@@H](C)C(=O)N[C@H](C(=O)N[C@@H](CC(C)C)C(=O)N[C@@H](CCCCN)C(=O)N[C@H](C(=O)N[C@@H](CC(C)C)C(=O)N[C@H](C(=O)N[C@H](C(=O)NCC(=O)N[C@@H](CC(C)C)C(=O)N1CCC[C@H]1C(=O)N[C@@H](C)C(=O)N[C@@H](CC(C)C)C(=O)N[C@H](C(=O)N[C@@H](CO)C(=O)N[C@@H](Cc1c[nH]c2ccccc12)C(=O)N[C@H](C(=O)N[C@@H](CCCCN)C(=O)N[C@@H](CCCNC(=N)N)C(=O)N[C@@H](CCCCN)C(=O)N[C@@H](CCCNC(=N)N)C(=O)N[C@@H](CCC(N)=O)C(=O)N[C@@H](CCC(N)=O)C(N)=O)[C@@H](C)CC)[C@@H](C)CC)[C@@H](C)O)[C@@H](C)O)C(C)C)C(C)C [melittin, reference compound] | destroyed both the inner and outer membranes of bacteria | destroyed both the inner and outer membranes of bacteria | exhibited hemolysis of hRBCs starting from low concentrations |  |  |  |  |  |  |  |  |  |  |  |  |  |  |  | 
OctA-DabDabAFDabVADabDabPLSLLDab-NH2 (Octanoyl-[Dab][Dab]AF[Dab]VA[Dab][Dab]PLSLL[Dab]-NH2; SMILES CCCCCCCC(=O)N[C@@H](CCN)C(=O)N[C@@H](CCN)C(=O)N[C@@H](C)C(=O)N[C@@H](Cc1ccccc1)C(=O)N[C@@H](CCN)C(=O)N[C@H](C(=O)N[C@@H](C)C(=O)N[C@@H](CCN)C(=O)N[C@@H](CCN)C(=O)N1CCC[C@H]1C(=O)N[C@@H](CC(C)C)C(=O)N[C@@H](CO)C(=O)N[C@@H](CC(C)C)C(=O)N[C@@H](CC(C)C)C(=O)N[C@@H](CCN)C(N)=O)C(C)C) [CMP1709] |  |  |  | 0.0020 µg/mL | 0.016 µg/mL | 0.0078 µg/mL | 0.0040 µg/mL | 0.0078 µg/mL | 0.50 µg/mL | 0.078 µg/mL | 0.25 µg/mL | 0.063 µg/mL | two times | two times | 0.0078 µg/mL | very good sensitizing effect | 8.7 fold | No changes were observed in the number of colonies | excellent therapeutic efficacy
